The target in one assay is T1, MCT2 (Homo sapiens, UniProt O60669).
T1 construct: gene SLC16A7
The note with it: read-out: AZD3965.

The target of the next assay is T2, MCT1 (Homo sapiens, UniProt P53985).
T2 construct: gene SLC16A1
T2 sequence (P53985 1-500): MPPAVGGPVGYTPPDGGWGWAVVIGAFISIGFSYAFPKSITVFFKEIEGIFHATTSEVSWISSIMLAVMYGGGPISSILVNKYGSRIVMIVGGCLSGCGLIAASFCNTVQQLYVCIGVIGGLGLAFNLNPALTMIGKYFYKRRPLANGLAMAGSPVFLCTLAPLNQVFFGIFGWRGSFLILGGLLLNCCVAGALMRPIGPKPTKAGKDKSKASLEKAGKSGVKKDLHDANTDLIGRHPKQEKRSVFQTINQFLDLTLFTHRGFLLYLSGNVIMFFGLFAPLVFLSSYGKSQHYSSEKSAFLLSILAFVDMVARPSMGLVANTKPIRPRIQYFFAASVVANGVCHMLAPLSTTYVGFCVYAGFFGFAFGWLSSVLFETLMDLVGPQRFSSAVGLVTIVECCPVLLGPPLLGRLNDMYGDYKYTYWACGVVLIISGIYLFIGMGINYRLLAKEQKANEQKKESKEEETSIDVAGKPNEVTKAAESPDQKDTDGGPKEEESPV
Kind of assay: SPA competition binding, […]-MCT1 ligand displacement on Jurkat cell membranes; also Ki […] on recombinant human MCT1 yeast membranes. Particulars: read-out: AZD3965.

T1 sequence (O60669 whole entry): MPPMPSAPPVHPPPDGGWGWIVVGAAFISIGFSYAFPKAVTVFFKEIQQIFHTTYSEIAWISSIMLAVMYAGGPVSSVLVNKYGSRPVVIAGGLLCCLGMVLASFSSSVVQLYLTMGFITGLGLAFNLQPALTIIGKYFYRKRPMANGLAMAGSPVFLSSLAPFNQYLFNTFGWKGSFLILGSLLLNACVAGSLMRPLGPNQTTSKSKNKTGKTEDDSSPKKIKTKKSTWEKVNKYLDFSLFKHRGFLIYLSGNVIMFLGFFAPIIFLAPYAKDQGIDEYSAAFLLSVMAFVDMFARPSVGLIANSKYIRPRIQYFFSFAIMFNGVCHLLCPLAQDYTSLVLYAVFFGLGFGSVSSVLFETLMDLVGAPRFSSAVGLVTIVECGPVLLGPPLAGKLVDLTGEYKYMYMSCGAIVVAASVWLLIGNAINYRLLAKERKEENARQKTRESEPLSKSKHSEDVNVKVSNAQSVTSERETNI

For `Cc1[nH]nc(C(F)(F)F)c1Cc1sc2c(c1C(=O)N1C[C@](C)(O)CO1)c(=O)n(C)c(=O)n2C(C)C` [AZD3965], the Ki on MCT2 was 20 nM; at MCT1, 1.6 nM.

Source of the values: paper PMC5642474, “Pre-clinical pharmacology of AZD3965, a selective inhibitor of MCT1: DLBCL, NHL and Burkitt’s lymphoma anti-tumor activity” (Oncotarget, 2017).
